Values quoted from earlier work in patent publication US20200261422A1, “METHODS FOR […] […] HUMAN PATIENTS USING I[…]-2 […]” (Massachusetts Institute of Technology, priority 2019, published 2020).

Assays:
[1] = system: effects of dexmedetomidine (α2 adrenergic receptor agonist); conditions: intramuscular injection; dexmedetomidine e.g. DEXDOMITOR and DEXDOMITOR 0.1
[2] = in vivo

terminal elimination half-life [2]	SMILES	time to reverse the effects of dexmedetomidine [1]
–	CCC1(c2cnc[nH]2)Cc2ccccc2C1 [atipamezole, 4-(2-ethyl-2,3-dihydro-1H-inden-2-yl)-1H-imidazole]	5 to 10 min
about 2 hours	Cc1cccc([C@H](C)c2cnc[nH]2)c1C [dexmedetomidine, Dexmedetomidine]	–
